Columns and labels:
H22 tumors = assay: Anti-tumor efficacy of Compound 1 with and without anti-PD-L1 in the H22 subcutaneous syngeneic model (Example 6); assay type: in vivo, mice
Experimental: Female BALB/c mice were inoculated subcutaneously at right flank with H22 tumor cells for tumor development. Treatment began on Day 6 post tumor inoculation and the mice were treated for 21 days. Tumor and weight measurements were continued for the duration of the study, and the survival was recorded until Day 106. The results are summarized Table 6-1, Table 6-2, and FIG. 23. In all cases the dosing volume was 10 ml/kg. PD-L1 antibody was obtained from Bioxcell.

MC38 tumors = assay: Anti-tumor efficacy of Compound 1 and Compound 3 by IV and SC routes in the MC38 model (Example 9); assay type: in vivo, mice
Experimental: Female C57BL/6 mice were inoculated subcutaneously in the right flank with MC38 cells for tumor development. Six days after tumor inoculation, mice with tumor sizes ranging from 52-97 mm^3 (average tumor size 71 mm^3) were selected and assigned into 10 groups using stratified randomization with 8 mice per group based upon their tumor volumes. The treatments were started from the day of randomization (defined as D0), Group 1 was treated with Vehicle control, SC qd×5 days on (Mon-Fri)×4 cycles; Group 2 was treated with Compound 1, 1.4 mpk SC, qd×5 days on (Mon-Fri)×4 cycles; Group 3 was treated with Compound 1, 7 mpk IV, biw (Mon, Thu)×4 cycles; Group 4 was treated with Compound 1, 14 mpk IV, biw (Mon, Thu)×4 cycles; Group 5 was treated with Compound 1, 14 mpk IV, qw (Mon)×4 cycles; Group 6 was treated with Compound 1, 21 mpk IV, qw (Mon)×4 cycles; Group 7 was treated with Compound 3, 1 mpk SC, qd 5 days on (Mon-Fri)×4 cycles; Group 8 was treated with Compound 3, 3 mpk SC, qd 5 days on (Mon-Fri)×4 cycles; Group 9 was treated with Compound 3, 9 mpk SC, qd 5 days on (Mon-Fri)×4 cycles; and Group 10 was treated with Compound 3, 7 mpk IV, tiw (Mon, Wed, Fri)×4 cycles. The tumor sizes were measured three times per week during the treatment. Survival was monitored with tumor volume exceeding 2000 mm^3 as endpoint. The entire study was terminated on D44 after start of the treatment. All treatments were well-tolerated without any adverse effects or significant body weight loss.

[1] = 0.7 mg/kg 5-day ON 2-day OFF x 3 cycles
[2] = 1.4 mg/kg 5-day ON 2-day OFF x 3 cycles
[3] = Day 26, 0.7 mg/kg 5-day ON 2-day OFF x 3 cycles
[4] = Day 26, 1.4 mg/kg 5-day ON 2-day OFF x 3 cycles
[5] = Group 2, 1.4 mpk SC qd Mon-Fri x4 cycles
[6] = Group 2, 1.4 mpk SC qd Mon-Fri x4 cycles, day 11
[7] = Group 3, 7 mpk IV biw x4 cycles
[8] = Group 3, 7 mpk IV biw x4 cycles, day 11
[9] = Group 4, 14 mpk IV biw x4 cycles
[10] = Group 4, 14 mpk IV biw x4 cycles, day 11
[11] = Group 5, 14 mpk IV qw x4 cycles
[12] = Group 5, 14 mpk IV qw x4 cycles, day 11
[13] = Group 6, 21 mpk IV qw x4 cycles
[14] = Group 6, 21 mpk IV qw x4 cycles, day 11

Structure (SMILES): CC(=O)N[C@@H](Cc1c[nH]c2ccccc12)C(=O)N[C@@H](CCC(=O)C=[N+]=[N-])C(=O)OC(C)C [Compound 1, Isopropyl (S)-2-((S)-2-acetamido-3-(1H-indol-3-yl)propanamido)-6-diazo-5-oxohexanoate]
- Cure Rate (H22 tumors; [1]): 0%
- MST (H22 tumors; [1]): 45 days
- Cure Rate (H22 tumors; [2]): 0%
- MST (H22 tumors; [2]): 47 days
- TGI (H22 tumors; Compound 1 alone 0.7 mg/kg, p<0.001): ~80%
- TGI (H22 tumors; Compound 1 alone 1.4 mg/kg, p<0.001): ~80%
- BWC (H22 tumors; [3]): 0%
- Mean Tumor Vol (H22 tumors; [3]): 529 ± 64 mm^3
- TGI (H22 tumors; [3]): 79%
- BWC (H22 tumors; [4]): 7%
- Mean Tumor Vol (H22 tumors; [4]): 465 ± 133 mm^3
- TGI (H22 tumors; [4]): 82%
- ILS (MC38 tumors; [5]): 170.0%
- MST (MC38 tumors; [5]): 40.5 days
- RTV at day 11 (MC38 tumors; [5]): 0.63 ± 0.11
- Tumor Size at day 11 (MC38 tumors; [5]): 43 ± 6 mm^3
- Tumor volume (MC38 tumors; Group 2, 1.4 mpk SC qd Mon-Fri x4 cycles, day 0): 71 ± 5 mm^3
- Tumor volume (MC38 tumors; Group 2, 1.4 mpk SC qd Mon-Fri x4 cycles, day 2): 64 ± 5 mm^3
- Tumor volume (MC38 tumors; Group 2, 1.4 mpk SC qd Mon-Fri x4 cycles, day 4): 68 ± 10 mm^3
- Tumor volume (MC38 tumors; Group 2, 1.4 mpk SC qd Mon-Fri x4 cycles, day 7): 61 ± 5 mm^3
- Tumor volume (MC38 tumors; Group 2, 1.4 mpk SC qd Mon-Fri x4 cycles, day 9): 39 ± 3 mm^3
- T/C (MC38 tumors; [6]): 3.86%
- TGI (MC38 tumors; [6]): 102.69%
- Tumor volume (MC38 tumors; [6]): 43 ± 6 mm^3
- Tumor volume (MC38 tumors; Group 2, 1.4 mpk SC qd Mon-Fri x4 cycles, day 14): 51 ± 9 mm^3
- Tumor volume (MC38 tumors; Group 2, 1.4 mpk SC qd Mon-Fri x4 cycles, day 16): 50 ± 7 mm^3
- Tumor volume (MC38 tumors; Group 2, 1.4 mpk SC qd Mon-Fri x4 cycles, day 18): 52 ± 9 mm^3
- Tumor volume (MC38 tumors; Group 2, 1.4 mpk SC qd Mon-Fri x4 cycles, day 21): 44 ± 7 mm^3
- Tumor volume (MC38 tumors; Group 2, 1.4 mpk SC qd Mon-Fri x4 cycles, day 23): 41 ± 9 mm^3
- Tumor volume (MC38 tumors; Group 2, 1.4 mpk SC qd Mon-Fri x4 cycles, day 25): 42 ± 11 mm^3
- Tumor volume (MC38 tumors; Group 2, 1.4 mpk SC qd Mon-Fri x4 cycles, day 28): 55 ± 14 mm^3
- Tumor volume (MC38 tumors; Group 2, 1.4 mpk SC qd Mon-Fri x4 cycles, day 30): 140 ± 50 mm^3
- Tumor volume (MC38 tumors; Group 2, 1.4 mpk SC qd Mon-Fri x4 cycles, day 32): 303 ± 119 mm^3
- Tumor volume (MC38 tumors; Group 2, 1.4 mpk SC qd Mon-Fri x4 cycles, day 35): 509 ± 166 mm^3
- Tumor volume (MC38 tumors; Group 2, 1.4 mpk SC qd Mon-Fri x4 cycles, day 37): 896 ± 217 mm^3
- ILS (MC38 tumors; [7]): 123.3%
- MST (MC38 tumors; [7]): 33.5 days
- RTV at day 11 (MC38 tumors; [7]): 1.44 ± 0.20
- Tumor Size at day 11 (MC38 tumors; [7]): 99 ± 11 mm^3
- Tumor volume (MC38 tumors; Group 3, 7 mpk IV biw x4 cycles, day 0): 71 ± 4 mm^3
- Tumor volume (MC38 tumors; Group 3, 7 mpk IV biw x4 cycles, day 2): 61 ± 9 mm^3
- Tumor volume (MC38 tumors; Group 3, 7 mpk IV biw x4 cycles, day 4): 64 ± 7 mm^3
- Tumor volume (MC38 tumors; Group 3, 7 mpk IV biw x4 cycles, day 7): 98 ± 8 mm^3
- Tumor volume (MC38 tumors; Group 3, 7 mpk IV biw x4 cycles, day 9): 79 ± 7 mm^3
- T/C (MC38 tumors; [8]): 8.87%
- TGI (MC38 tumors; [8]): 97.42%
- Tumor volume (MC38 tumors; [8]): 99 ± 11 mm^3
- Tumor volume (MC38 tumors; Group 3, 7 mpk IV biw x4 cycles, day 14): 140 ± 16 mm^3
- Tumor volume (MC38 tumors; Group 3, 7 mpk IV biw x4 cycles, day 16): 134 ± 10 mm^3
- Tumor volume (MC38 tumors; Group 3, 7 mpk IV biw x4 cycles, day 18): 133 ± 15 mm^3
- Tumor volume (MC38 tumors; Group 3, 7 mpk IV biw x4 cycles, day 21): 236 ± 36 mm^3
- Tumor volume (MC38 tumors; Group 3, 7 mpk IV biw x4 cycles, day 23): 317 ± 59 mm^3
- Tumor volume (MC38 tumors; Group 3, 7 mpk IV biw x4 cycles, day 25): 337 ± 56 mm^3
- Tumor volume (MC38 tumors; Group 3, 7 mpk IV biw x4 cycles, day 28): 602 ± 144 mm^3
- Tumor volume (MC38 tumors; Group 3, 7 mpk IV biw x4 cycles, day 30): 1181 ± 278 mm^3
- ILS (MC38 tumors; [9]): 133.3%
- MST (MC38 tumors; [9]): 35 days
- RTV at day 11 (MC38 tumors; [9]): 1.06 ± 0.22
- Tumor Size at day 11 (MC38 tumors; [9]): 69 ± 11 mm^3
- Tumor volume (MC38 tumors; Group 4, 14 mpk IV biw x4 cycles, day 0): 72 ± 6 mm^3
- Tumor volume (MC38 tumors; Group 4, 14 mpk IV biw x4 cycles, day 2): 80 ± 12 mm^3
- Tumor volume (MC38 tumors; Group 4, 14 mpk IV biw x4 cycles, day 4): 70 ± 8 mm^3
- Tumor volume (MC38 tumors; Group 4, 14 mpk IV biw x4 cycles, day 7): 86 ± 13 mm^3
- Tumor volume (MC38 tumors; Group 4, 14 mpk IV biw x4 cycles, day 9): 70 ± 11 mm^3
- T/C (MC38 tumors; [10]): 6.51%
- TGI (MC38 tumors; [10]): 100.28%
- Tumor volume (MC38 tumors; [10]): 69 ± 11 mm^3
- Tumor volume (MC38 tumors; Group 4, 14 mpk IV biw x4 cycles, day 14): 95 ± 14 mm^3
- Tumor volume (MC38 tumors; Group 4, 14 mpk IV biw x4 cycles, day 16): 107 ± 25 mm^3
- Tumor volume (MC38 tumors; Group 4, 14 mpk IV biw x4 cycles, day 18): 96 ± 22 mm^3
- Tumor volume (MC38 tumors; Group 4, 14 mpk IV biw x4 cycles, day 21): 144 ± 45 mm^3
- Tumor volume (MC38 tumors; Group 4, 14 mpk IV biw x4 cycles, day 23): 163 ± 41 mm^3
- Tumor volume (MC38 tumors; Group 4, 14 mpk IV biw x4 cycles, day 25): 167 ± 47 mm^3
- Tumor volume (MC38 tumors; Group 4, 14 mpk IV biw x4 cycles, day 28): 261 ± 54 mm^3
- Tumor volume (MC38 tumors; Group 4, 14 mpk IV biw x4 cycles, day 30): 562 ± 124 mm^3
- Tumor volume (MC38 tumors; Group 4, 14 mpk IV biw x4 cycles, day 32): 967 ± 171 mm^3
- Tumor volume (MC38 tumors; Group 4, 14 mpk IV biw x4 cycles, day 35): 1884 ± 337 mm^3
- ILS (MC38 tumors; [11]): 86.7%
- MST (MC38 tumors; [11]): 28 days
- RTV at day 11 (MC38 tumors; [11]): 2.06 ± 0.40
- Tumor Size at day 11 (MC38 tumors; [11]): 134 ± 21 mm^3
- Tumor volume (MC38 tumors; Group 5, 14 mpk IV qw x4 cycles, day 0): 70 ± 4 mm^3
- Tumor volume (MC38 tumors; Group 5, 14 mpk IV qw x4 cycles, day 2): 67 ± 5 mm^3
- Tumor volume (MC38 tumors; Group 5, 14 mpk IV qw x4 cycles, day 4): 77 ± 12 mm^3
- Tumor volume (MC38 tumors; Group 5, 14 mpk IV qw x4 cycles, day 7): 152 ± 20 mm^3
- Tumor volume (MC38 tumors; Group 5, 14 mpk IV qw x4 cycles, day 9): 105 ± 12 mm^3
- T/C (MC38 tumors; [12]): 12.69%
- TGI (MC38 tumors; [12]): 93.98%
- Tumor volume (MC38 tumors; [12]): 134 ± 21 mm^3
- Tumor volume (MC38 tumors; Group 5, 14 mpk IV qw x4 cycles, day 14): 312 ± 56 mm^3
- ILS (MC38 tumors; [13]): 60.0%
- MST (MC38 tumors; [13]): 24 days
- RTV at day 11 (MC38 tumors; [13]): 2.86 ± 0.39
- Tumor Size at day 11 (MC38 tumors; [13]): 206 ± 33 mm^3
- Tumor volume (MC38 tumors; Group 6, 21 mpk IV qw x4 cycles, day 0): 71 ± 4 mm^3
- Tumor volume (MC38 tumors; Group 6, 21 mpk IV qw x4 cycles, day 2): 79 ± 10 mm^3
- Tumor volume (MC38 tumors; Group 6, 21 mpk IV qw x4 cycles, day 4): 80 ± 9 mm^3
- Tumor volume (MC38 tumors; Group 6, 21 mpk IV qw x4 cycles, day 7): 182 ± 24 mm^3
- Tumor volume (MC38 tumors; Group 6, 21 mpk IV qw x4 cycles, day 9): 164 ± 21 mm^3
- T/C (MC38 tumors; [14]): 17.57%
- TGI (MC38 tumors; [14]): 87.26%
- Tumor volume (MC38 tumors; [14]): 206 ± 33 mm^3
- Tumor volume (MC38 tumors; Group 6, 21 mpk IV qw x4 cycles, day 14): 440 ± 87 mm^3
- Tumor volume (MC38 tumors; Group 6, 21 mpk IV qw x4 cycles, day 16): 515 ± 84 mm^3
- Tumor volume (MC38 tumors; Group 6, 21 mpk IV qw x4 cycles, day 18): 740 ± 120 mm^3
- Tumor volume (MC38 tumors; Group 6, 21 mpk IV qw x4 cycles, day 21): 1005 ± 174 mm^3
- Tumor volume (MC38 tumors; Group 6, 21 mpk IV qw x4 cycles, day 23): 1683 ± 302 mm^3
